Measured values reported in patent US12714725B2, “Stabilization of selenite in a nutritional solution by dissolved oxygen” (BAXTER INTERNATIONAL INC., priority 2019, dated 2026).

Columns and labels:
[1] = cited from earlier work
[2] = Stability of a mix of the 9 TE at pH 2.2 with 200 mM malic acid in a glass bottle; assay type: physicochemical; details: heat sterilized, about 3 ppm dissolved oxygen; for Concentration recovered, T6 M 5° C. / Percentage of the recovered TE, T6 M 5° C.: 6 months at 5° C.; for Concentration recovered, T6 M 5° C. / Concentration recovered, T6 M 40° C.: pH 2.2, 200 mM malic acid; for Percentage of the recovered TE, T6 M 5° C. / Percentage of the recovered TE, T6 M 40° C.: relative to theoretical concentration; for Concentration recovered, T6 M 40° C. / Percentage of the recovered TE, T6 M 40° C.: 6 months at 40° C.
Protocol: The presence of oxygen promotes selenite stability. To ensure that it is not deleterious to another TE the stability of a mix of the 9 TE of interest (i.e. Zn, Cu, Cr, Mo, Mn, Fe, I, F & Se) was evaluated at pH 2.2 with 200 mM of malic acid (to ensure Iodide stability) and stored in a glass bottle (so containing about 3 ppm of dissolved oxygen). The solution was heat sterilized and stored 6 months at 40° C. or 5° C. (T6M 40° C. and T6M 5° C., respectively).

[3] = Full factorial DoE on the stability of Selenite (container material, pH, sterilization, storage temperature, dissolved oxygen); assay type: physicochemical
Protocol: A full factorial DoE was designed to evaluate the impact of five factors on the stability of Selenite:
Container material: an interaction between Selenite and plastic bags material was previously highlighted. To evaluate this factor a neutral material i.e. glass bottles was used as a comparison to plastic bags.
pH of the solution: all previous studies were conducted at pH<3.5 to ensure stability of Fe. A comparison with a native pH>7 obtained by simple dilution of Selenite into MilliQ water allowed to evaluate the impact of this parameter.
Sterilization: the terminal heat sterilization conducted on samples may initiate degradative chemical reactions by heat exposure. Unsterilized VS sterilized samples were compared regarding Selenite stability to assess the impact of this process step.
Storage temperature: accelerated stability studies are classically conducted at 40° C. However, selenite might be sensitive to it and a comparison with samples stored at 5° C. was conducted.
Dissolved oxygen content: oxygen is involved in many redox reactions most of the time deleterious for macro and micronutrients (particularly vitamins). To assess the impact of this parameter on Selenite stability, solutions of Selenite were flushed either with oxygen (up to saturation at about 8 ppm) or with nitrogen (DO<0.5 ppm).
All combinations of factors were produced and stored under appropriate conditions for 6 months. They were then submitted to several tests to evaluate the impact of each factor on several responses.
The following readouts were performed in order to assess the impact of the factors listed above:
Se assay to evaluate the degradation of Selenium.
Visual inspection of the samples to detect any precipitate, particles or discoloration.
pH measurement to evaluate the evolution of sample pH after 6 months storage.
Dissolved oxygen measurement to evaluate the evolution of the dissolved oxygen after 6 months of storage. […]

Concentration recovered, T6 M 5° C. [2] | Concentration recovered, T6 M 40° C. [2] | Structure (SMILES) | Chemical form; Solubility in water [1] | Percentage of the recovered TE, T6 M 5° C. [2] | Percentage of the recovered TE, T6 M 40° C. [2] | Stability in solution ([3]; absence of stable amount of DO in the said range, storage for more than 1-3 months) | Stability in solution ([3]; products with stable DO concentration of above 0.5 ppm, specifically 0.5 ppm to 8 ppm) | Oxygen amount sufficient to ensure the stability of Selenite in solution ([3]; regression of Se assay against log dissolved oxygen, sterilized samples stored at 40° C. (FIG. 2))
9784 ng/mL | 10504 ng/mL | [Cl][Cu][Cl] [Cu, copper chloride] | 706 mg/mL | 81.1% | 87.1% |  |  | 
 |  | [F-].[Na+] [F, sodium fluoride] |  | 94% | 88% |  |  | 
3167 ng/mL | 3401 ng/mL | [I-].[K+] [I, potassium iodide] |  | 78.6% | 84.4% |  |  | 
653 ng/mL | 707 ng/mL | [Na+].[Na+].[O]=[Mo](=[O])([O-])[O-] [Mo, sodium molybdate] |  | 79.9% | 86.6% |  |  | 
 |  | O=[Se](O)O [Selenite, sodium selenite] |  |  |  | instable | stable | around 0.5 ppm

Structure (SMILES) | Concentration recovered, T6 M 5° C. [2] | Concentration recovered, T6 M 40° C. [2] | Chemical form; Solubility in water [1] | Percentage of the recovered TE, T6 M 5° C. [2] | Percentage of the recovered TE, T6 M 40° C. [2] | Stability in solution ([3]; absence of stable amount of DO in the said range, storage for more than 1-3 months) | Stability in solution ([3]; products with stable DO concentration of above 0.5 ppm, specifically 0.5 ppm to 8 ppm) | Oxygen amount sufficient to ensure the stability of Selenite in solution ([3]; regression of Se assay against log dissolved oxygen, sterilized samples stored at 40° C. (FIG. 2))
[Cl][Cr]([Cl])[Cl] [Cr, chromium chloride] | 306 ng/mL | 329 ng/mL | 585 mg/mL | 77.3% | 83.1% |  |  | 
[Cl-].[Cl-].[Zn+2] [Zn, zinc chloride] | 158347 ng/mL | 171822 ng/mL | 4.32 kg/L | 77.8% | 84.4% |  |  | 
